Measurements reported in the supplement of paper PMC8253809.

Legend:
Experiment in all cases: area under dose-response curve of % growth inhibition (log2 RLU vs DMSO / staurosporine), 1e-11 to 1e-4 M (% x log10 M); higher = more growth inhibition
[1] = test system: HGGX6 (H3.3 G34R paediatric high-grade glioma line)
In short: (§1)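 Patient-derived pHGG/DIPG cell lines and astrocytes were plated in 384-well plates coated with 1% Geltrex and treated in triplicate with a 10-point threefold dilution series whose mean top concentration was 35 μM, for 7 days (3 days for iAstro) at 37 °C and 5% CO2. CellTiter-Glo luminescence was log2-transformed and scaled on each plate to % activity between solvent and positive controls. Area under the curve came from the trapezoid rule applied to a fitted log-logistic curve, or to a smoothing spline where the sigmoid fit failed.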

[2] = test system: DIPGX37 (H3.3 K27M diffuse intrinsic pontine glioma line)
In short: as §1

[3] = test system: DIPGX29 (H3.3 K27M diffuse intrinsic pontine glioma line)
In short: as §1

[4] = test system: HGGX39 (paediatric high-grade glioma line)
In short: as §1

SMILES | area under dose-response curve [1] | area under dose-response curve [2] | area under dose-response curve [3] | area under dose-response curve [4]
CCC1(c2ccc(N)cc2)CCC(=O)NC1=O (stereo not given) [AMINOGLUTETHIMIDE] | 14.3 | 4.75 | 7.58 | 3.33
Cn1cc(CCn2cnc(-c3cnn(C)c3)c2-c2ccc(C#N)cc2)cn1 [BAZ2-ICR] | 14.6 | 22.9 | 8.96 | 16.5
O=C(c1cccc(Br)c1)N1CCC(N2CCCC2)CC1 [UNC926] | 8.91 | 0 | 8.49 | 8.09
CCCCCCNC(=O)n1cc(F)c(=O)[nH]c1=O [CARMOFUR] | 15.3 | 30.3 | 20.1 | 20.2
CCCS(=O)(=O)Nc1ccc(F)c(C(=O)c2c[nH]c3ncc(-c4ccc(Cl)cc4)cc23)c1F [VEMURAFENIB] | 8.94 | 2.53 | 5.27 | 7.32
CCN(CC)CCOC(=O)c1ccc(N)cc1 [PROCAINE] | 0 | 1.95 | 3.12 | 1.44
Nc1nc(=O)n([C@H]2C[C@H](O)[C@@H](CO)O2)cc1F [5-FLUORODEOXYCYTIDINE] | 28.8 | 10.7 | 42.2 | 39.7
O=C(O)c1ccc(CN2CCC(CN[C@@H]3C[C@H]3c3ccccc3)CC2)cc1 | 0.903 | 20.1 | 1.9 | 2.17
CN(C)/N=N/c1[nH]cnc1C(N)=O [DACARBAZINE] | 16.5 | 17.2 | 6.29 | 19.3
COc1ccccc1C(=O)Nc1cc2c(cc1N1CCCCC1)n(C)c(=O)n2C [GSK-5959] | 45.8 | 76.9 | 8.32 | 41.9
COc1cccc2c1c(O)c(C(=O)N(C)c1ccc(C(F)(F)F)cc1)c(=O)n2C [TASQUINIMOD] | 0 | 4.17 | 0 | 0
CC(C)Oc1ccc(-c2c[nH]cc2CN(C)CCN)cc1 [MS023] | 14.7 | 10.6 | 10.9 | 8.58
C=C(c1ccc(C(=O)O)cc1)c1cc2c(cc1C)C(C)(C)CCC2(C)C [BEXAROTENE] | 13.2 | 6.14 | 21.8 | 28.4
Nc1ncn([C@H]2C[C@H](O)[C@@H](CO)O2)c(=O)n1 [DECITABINE] | 3.81 | 9.77 | 4.32 | 7.33
COc1cc2nccc(Oc3ccc(NC(=O)Nc4cc(C)on4)c(Cl)c3)c2cc1OC [TIVOZANIB] | 42.5 | 31.3 | 14.6 | 21.7
Nc1ncnc2c1c(COc1cccc(Cl)c1)nn2C1CCOCC1 | 14.3 | 32.2 | 10 | 23.5
Clc1ccc(C(c2ccccc2Cl)C(Cl)Cl)cc1 (stereo not given) [MITOTANE] | 12.5 | 16.1 | 12.9 | 8.7
COc1cc(OC)c2c(=O)[nH]c(-c3cc(C)c(OCCO)c(C)c3)nc2c1 [RVX-208] | 12 | 2.33 | 5.91 | 8.2
Cc1cn(-c2cc(NC(=O)c3ccc(C)c(Nc4nccc(-c5cccnc5)n4)c3)cc(C(F)(F)F)c2)cn1 [NILOTINIB] | 16.8 | 18.9 | 14.3 | 14.9
O=c1[nH]cc(F)c(=O)[nH]1 [5-FLUOROURACIL] | 25.2 | 4.4 | 17.6 | 10.6
Cc1c(F)ccc(C(=O)Nc2cc([N+](=O)[O-])ccc2N2CCN(C)CC2)c1Cl [WDR5-C47] | 7.74 | 27.1 | 4.98 | 5.16
CN(N=O)C(=O)N[C@H]1C(O)O[C@H](CO)[C@@H](O)[C@@H]1O (mixture of isomers) [STREPTOZOSIN] | 5.51 | 8.39 | 11 | 7.25

SMILES | area under dose-response curve [1] | area under dose-response curve [2] | area under dose-response curve [3] | area under dose-response curve [4]
Cc1ccc(Nc2nccc(N(C)c3ccc4c(C)n(C)nc4c3)n2)cc1S(N)(=O)=O [PAZOPANIB] | 16.8 | 12.6 | 14.4 | 14.8
Nc1nc(F)nc2c1ncn2[C@@H]1O[C@H](COP(=O)(O)O)[C@@H](O)[C@@H]1O [FLUDARABINE PHOSPHATE] | 6.46 | 39.7 | 32.1 | 10.3
CCc1nc(N)nc(N)c1-c1ccc(Cl)cc1 [PYRIMETHAMINE] | 26.9 | 6.34 | 25 | 26.5
CN(Cc1cnc2nc(N)nc(N)c2n1)c1ccc(C(=O)N[C@@H](CCC(=O)O)C(=O)O)cc1 [METHOTREXATE] | 58.8 | 30.5 | 44.1 | 39.9
O=c1[nH]c(=O)n([C@H]2C[C@H](O)[C@@H](CO)O2)cc1/C=C/Br [BRIVUDINE] | 2.8 | 9.7 | 6.05 | 1.13
C[C@@H]1C[C@H]2[C@@H]3CCC4=CC(=O)C=C[C@]4(C)[C@@]3(Cl)[C@@H](O)C[C@]2(C)[C@@]1(OC(=O)c1ccco1)C(=O)CCl [MOMETASONE FUROATE] | 8.37 | 40.5 | 42.1 | 20.8
CC1(C)CCC(C)(C)c2cc(NC(=O)c3ccc(C(=O)O)cc3)ccc21 [TAMIBAROTENE] | 28.3 | 37.3 | 19.3 | 44.5
CCN(CCO)CCCC(C)Nc1ccnc2cc(Cl)ccc12 (stereo not given) [HYDROXYCHLOROQUINE] | 1.95 | 8.17 | 5.15 | 0
COc1cc(NCc2ccc3nc(N)nc(N)c3c2C)cc(OC)c1OC [TRIMETREXATE] | 31.9 | 11.6 | 51 | 28.7
C/C(=C\C(=O)Nc1ccccc1C(=O)O)c1ccc2ccccc2c1 [BIBR-1532] | 8.79 | 20.5 | 0 | 0
COc1ccc(CCc2nc3cc(-c4c(C)noc4C)ccc3n2C[C@H](C)N2CCOCC2)cc1Cl [SGC-CBP30] | 11.7 | 13.9 | 7.64 | 14
CN1[C@@H]2CC[C@H]1C[C@@H](OC(=O)c1c[nH]c3ccccc13)C2 [TROPISETRON] | 10.2 | 33.4 | 18.7 | 19.5
Cc1nc(=O)c2cc(CN(C)c3ccc(C(=O)N[C@@H](CCC(=O)O)C(=O)O)s3)ccc2[nH]1 [RALTITREXED] | 16 | 26.9 | 26.5 | 33.4
COc1cc(C(C)=O)ccc1OCCCN1CCC(c2noc3cc(F)ccc23)CC1 [ILOPERIDONE] | 5.98 | 13.2 | 15.1 | 10.3
CCN(C(=O)CO)[C@H]1CN(/C(=N\C#N)Nc2cccc(OC(F)F)c2)N=C1c1ccc(Cl)c(Cl)c1 [BAY598] | 8.24 | 16.3 | 18.1 | 10.8
O=C(O)CCCc1ccc(N(CCCl)CCCl)cc1 [CHLORAMBUCIL] | 18.3 | 15.9 | 25.8 | 20.8
O=C(O)c1ccc(O)c2ncccc12 [IOX1] | 5.89 | 9.36 | 3.7 | 2.63
CC1CS(=O)(=O)CCN1/N=C/c1ccc([N+](=O)[O-])o1 (stereo not given) [NIFURTIMOX] | 22 | 17.9 | 18.2 | 23.6
O=C(c1cncc(Br)c1)N1CCC(N2CCCC2)CC1 [UNC669] | 0 | 20.1 | 0 | 0.456
COc1ccc2c(c1OC)C(=O)O[C@@H]2[C@H]1c2c(cc3c(c2OC)OCO3)CCN1C [NOSCAPINE] | 3.61 | 4.1 | 3.97 | 3.21
c1cc(CN2CCCNCCNCCCNCC2)ccc1CN1CCCNCCNCCCNCC1 [PLERIXAFOR] | 3.55 | 32.1 | 16.6 | 21
CC(=O)O[C@@]12CO[C@@H]1C[C@H](O)[C@@]1(C)C(=O)[C@H](O)C3=C(C)[C@@H](OC(=O)[C@H](O)[C@@H](NC(=O)OC(C)(C)C)c4ccccc4)C[C@@](O)([C@@H](OC(=O)c4ccccc4)[C@H]21)C3(C)C [DOCETAXEL] | 86.7 | 56 | 55.8 | 120

SMILES | area under dose-response curve [1] | area under dose-response curve [2] | area under dose-response curve [3] | area under dose-response curve [4]
N[C@H](CCC(=O)N[C@@H](Cc1c[nH]c2ccccc12)C(=O)O)C(=O)O [GOLOTIMOD] | 5.25 | 15.2 | 8.23 | 0.705
COc1cc(-c2cn(C)c(=O)c3cnccc23)c(OC)cc1CN(C)C [BI-9564] | 3.53 | 11.6 | 12.6 | 5.33
COc1ccccc1S(=O)(=O)Nc1ccc2c(c1)CN(C)C(=O)N2 [PFI-1] | 17.1 | 27.8 | 23.7 | 20.6
Nc1ncn([C@@H]2O[C@H](CO)[C@@H](O)[C@H]2O)c(=O)n1 [5-AZACYTIDINE] | 12.1 | 18.2 | 12.5 | 17.6
CCc1ccc(CCOc2ccc(CC3SC(=O)NC3=O)cc2)nc1 (stereo not given) [PIOGLITAZONE] | 11.5 | 35.1 | 10.8 | 11.2
O=C(c1ccc(C(=O)N2CCC(N3CCCC3)CC2)c(Nc2ccccc2)c1)N1CCC(N2CCCC2)CC1 [UNC1215] | 6.97 | 15 | 4.19 | 5.82
CC(N[C@H]1C[C@@H]1c1ccccc1)c1ccc2c(c1)OCCO2 (stereo not given in full) [LSD1-C76] | 7.75 | 24 | 6.56 | 12
O=c1[nH]c(=O)n([C@H]2C[C@H](O)[C@@H](CO)O2)cc1C(F)(F)F [TRIFLURIDINE] | 3.99 | 22.2 | 7.68 | 21
CCC(=O)N1CCOc2c(cc(-c3ccc(OC)c(OC)c3)cc2OC[C@H]2CCCN(C)C2)C1 [I-CBP112] | 16.4 | 18 | 14.1 | 2.35
Cc1ncc(CNC(=O)N(CCCl)N=O)c(N)n1 [NIMUSTINE] | 1.35 | 0 | 1.11 | 1.19
COc1ccccc1C(=O)Nc1cc2c(cc1N1CCCC1)n(C)c(=O)n2C [PFI-4] | 18.2 | 6.98 | 21.9 | 20.5
O=C(/C=C/N1C[C@H]2C[C@@H]1CN2c1ccccn1)c1ccccc1O [PFI-3] | 11.5 | 20.6 | 9.58 | 10.6
CC(=O)Oc1ccc(C(c2ccc(OC(C)=O)cc2)c2ccccn2)cc1 [BISACODYL] | 10.4 | 11.1 | 2.56 | 27.8
CO[C@H]1O[C@@H]2O[C@@]3(C)CC[C@H]4[C@H](C)CC[C@@H]([C@H]1C)[C@@]24OO3 [ARTEMETHER] | 17.6 | 3.95 | 5.53 | 14.4
COc1cc(C#N)ccc1S(=O)(=O)Nc1ccc2c(c1)cc(C)c(=O)n2C [NI-57] | 15.9 | 7.6 | 13.6 | 22.9
Cc1oncc1C(=O)Nc1ccc(C(F)(F)F)cc1 [LEFLUNOMIDE] | 2.22 | 2.94 | 5.84 | 4.82
O=C(NCC(=O)N1CCCCC1)Nc1ccc2nnsc2c1 [UNC2327] | 10.6 | 3.13 | 8.94 | 5.31
Nc1ccn([C@@H]2O[C@H](CO)[C@@H](O)[C@@H]2O)c(=O)n1 [CYTARABINE] | 15.6 | 23.3 | 42.9 | 30.6
Nc1ncn([C@H]2C[C@H](OP(=O)(O)OC[C@H]3O[C@@H](n4cnc5c(=O)[nH]c(N)nc54)C[C@@H]3O)[C@@H](CO)O2)c(=O)n1 [GUADECITABINE] | 0 | 16.4 | 0 | 0
c1ccc([C@@H]2C[C@H]2NC2CCNCC2)cc1 [GSK-LSD1] | 0 | 5.85 | 0 | 0
Cn1nnc2c(C(N)=O)ncn2c1=O [TEMOZOLOMIDE] | 15.3 | 15.4 | 5.13 | 11.3
